According to ChEMBL document CHEMBL4706474, “Tetrahydro-2-naphthyl and 2-Indanyl Triazolopyrimidines Targeting Plasmodium falciparum Dihydroorotate Dehydrogenase Display Potent and Selective Antimalarial Activity” (J Med Chem, 2016):

Experiments:
[1] = AUC (0 to infinity) in Sprague-Dawley rat at 17.5 mg/kg, po measured over 24 hrs by LC-MS analysis; assay type: ADME, organism-based; design: route oral, dose 17.5 mg/kg, time >24; settings: in vivo
[2] = Cmax in Sprague-Dawley rat at 17.5 mg/kg, po measured over 24 hrs by LC-MS analysis; assay type: ADME, organism-based; design: route oral, dose 17.5 mg/kg, time >24; settings: in vivo
[3] = Inhibition of yeast DHODH expressed in Plasmodium falciparum; design: species or system Saccharomyces cerevisiae
[4] = Tmax in Sprague-Dawley rat at 21.3 mg/kg, po measured over 24 hrs by LC-MS analysis; assay type: ADME, organism-based; settings: in vivo
[5] = Cmax in Sprague-Dawley rat at 21.3 mg/kg, po measured over 24 hrs by LC-MS analysis; assay type: ADME, organism-based; design: route oral, dose 21.3 mg/kg, time >24; settings: in vivo

Structure (SMILES)	AUC [1]	Cmax [2]	EC50 [3]	Tmax [4]	Cmax [5]
Cc1cc(N[C@H]2CCc3ccc(Cl)cc3C2)n2nc(C(C)(F)F)nc2n1	24.6 µM·h	3.3 µM	8.6 µM		
Cc1cc(NC2Cc3cc(F)c(F)cc3C2)n2nc(C(C)(F)F)nc2n1				4 h	12.5 µM
